Results as given in PubChem BioAssay (NCI).
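Grown in 96-well plates, cells were treated for 48 hours with each compound at five concentrations. Insufficient inhibition: endpoint recorded as highest concentration tested. At the TGI there is no net growth.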

What was measured:
Assay in all cases: DTP human tumour cell line panel, 48 h
A498 renal = test system: A498 renal
SK-OV-3 ovarian = test system: SK-OV-3 ovarian
NCI-H226 lung = test system: NCI-H226 lung
HT29 colon = test system: HT29 colon
UO-31 renal = test system: UO-31 renal
MOLT-4 leukemia = test system: MOLT-4 leukemia
NCI-H522 lung = test system: NCI-H522 lung
MDA-MB-231 breast = test system: MDA-MB-231 breast
LOX IMVI melanoma = test system: LOX IMVI melanoma
SF-268 CNS = test system: SF-268 CNS
COLO 205 colon = test system: COLO 205 colon
SK-MEL-5 melanoma = test system: SK-MEL-5 melanoma
SN12C renal = test system: SN12C renal
UACC-257 melanoma = test system: UACC-257 melanoma
RPMI-8226 leukemia = test system: RPMI-8226 leukemia
PC-3 prostate = test system: PC-3 prostate
K-562 leukemia = test system: K-562 leukemia
ACHN renal = test system: ACHN renal
HOP-92 NSCLC = test system: HOP-92 NSCLC
HCT-15 colon = test system: HCT-15 colon

| Compound | TGI (A498 renal) | TGI (SK-OV-3 ovarian) | TGI (NCI-H226 lung) | TGI (HT29 colon) | TGI (UO-31 renal) | TGI (MOLT-4 leukemia) | TGI (NCI-H522 lung) | TGI (MDA-MB-231 breast) | TGI (LOX IMVI melanoma) | TGI (SF-268 CNS) | TGI (COLO 205 colon) | TGI (SK-MEL-5 melanoma) | TGI (SN12C renal) | TGI (UACC-257 melanoma) | TGI (RPMI-8226 leukemia) | TGI (PC-3 prostate) | TGI (K-562 leukemia) | TGI (ACHN renal) | TGI (HOP-92 NSCLC) | TGI (HCT-15 colon) |
| --- | --- | --- | --- | --- | --- | --- | --- | --- | --- | --- | --- | --- | --- | --- | --- | --- | --- | --- | --- | --- |
| O=Cc1ccc2c(c1)CC1(C2)Cc2ccc3c(c2C1)CCC3 (stereo not given) | > 61 µM | 45.1 µM | 37.8 µM | 36.8 µM | 25 µM | 31.9 µM | > 83.6 µM | 14.2 µM | 15.9 µM | 41.9 µM | 43.7 µM | 15.9 µM | 23.7 µM | 33 µM | 27.9 µM | 18.2 µM | 25.6 µM | > 100 µM | > 48.3 µM | 34.4 µM |
| CC(=O)n1nc(-c2ccccc2)n(/N=C/c2ccc([N+](=O)[O-])cc2)c1=O | > 100 µM | > 100 µM | > 100 µM | > 100 µM | > 100 µM | > 100 µM | > 100 µM | > 100 µM | > 100 µM | > 100 µM | > 100 µM | > 100 µM | > 100 µM | > 100 µM | > 100 µM | > 100 µM | > 100 µM | > 100 µM | > 100 µM | > 100 µM |
| N#CSC#Cc1ccc(C#CSC#N)cc1 | 36.8 µM | 43 µM | 53.6 µM | 42.1 µM | 33.6 µM | > 100 µM | 29 µM | 35.2 µM | 34.5 µM | 51.7 µM | 34.6 µM | 33.2 µM | 34.6 µM | 33.8 µM | > 100 µM | 29.5 µM | > 100 µM | 30.1 µM | 26 µM | 38 µM |
| O=S(=O)(c1ccccc1)n1c2cc3cccnc3nc2c2cccnc21 | > 100 µM | > 100 µM | > 100 µM | > 100 µM | > 100 µM | > 100 µM | > 100 µM | > 100 µM | > 100 µM | > 100 µM | > 100 µM | > 100 µM | > 100 µM | > 100 µM | 56.6 µM | > 100 µM | 55.3 µM | > 100 µM | > 100 µM | > 100 µM |
| COC(=O)C(C)(NC(=O)C(CC(=O)OC(C)(C)C)NC(=O)OC(C)(C)C)c1ccccc1 (stereo not given) | > 100 µM | > 100 µM | > 100 µM | > 100 µM | > 100 µM | > 100 µM | > 100 µM | > 100 µM | > 100 µM | > 100 µM | > 100 µM | > 100 µM | > 100 µM | > 100 µM | > 100 µM | > 100 µM | > 100 µM | > 100 µM | > 100 µM | > 100 µM |
| O=C(O)/C=N\Nc1nc2ccccc2[nH]1 | > 100 µM | > 100 µM | > 100 µM | > 100 µM | > 100 µM | > 100 µM | > 100 µM | > 100 µM | > 100 µM | > 100 µM | > 100 µM | > 100 µM | > 100 µM | > 100 µM | > 100 µM | > 100 µM | > 100 µM | > 100 µM | > 100 µM | > 100 µM |
| COc1ccc(C(C)NNC(=O)c2ccncc2)c(OC)c1 (stereo not given) | > 100 µM | > 100 µM | > 100 µM | > 100 µM | > 100 µM | > 100 µM | > 100 µM | > 100 µM | > 100 µM | > 100 µM | > 100 µM | > 100 µM | > 100 µM | > 100 µM | > 100 µM | > 100 µM | > 100 µM | > 100 µM | > 100 µM | > 100 µM |
| Cc1ccc(S(=O)(=O)N/N=C/C(=C/c2ccc(Cl)cc2)CC(/C=N/NS(=O)(=O)c2ccc(C)cc2)=C\c2ccc(Cl)cc2)cc1 | 29 µM | > 100 µM | 38 µM | 24.1 µM | 18.7 µM | 6.62 µM | 16.1 µM | 24.8 µM | 3.73 µM | 55.2 µM | 16.9 µM | 13.9 µM | 35 µM | 63.6 µM | 9.11 µM | 24 µM | 8.19 µM | 19.1 µM | 12.4 µM | 12.3 µM |
| CC(C)(C)c1cc(C(P(=O)(c2ccccc2)c2ccccc2)P(=O)(c2ccccc2)c2ccccc2)cc(C(C)(C)C)c1O | 5.08 µM | > 10 µM | 9.13 µM | 4.39 µM | 6.99 µM | > 8.09 µM | 5.26 µM | 5.12 µM | 4.04 µM | > 9.47 µM | 3.31 µM | 2.94 µM | > 9.06 µM | 4.18 µM | > 7.73 µM | 7.67 µM | 9.93 µM | > 10 µM | 5.65 µM | 6.96 µM |
